Measured values from US20230219952A1, “PROCESS FOR PREPARING METHYL {4,6-DIAMINO-2-[5-FLUORO-1-(2-FLUOROBENZYL)-1H-PYRAZOLO[3,4-B]PYRIDIN-3 -YL]PYRIMIDIN-5-YL} CARBAMATE” (ADVERIO PHARMA GMBH, priority 2020, published 2023).
Where two headings read alike, the source gives them in different places.

Tests used:
Format in all cases: physicochemical
[1] = Isolation in an inverting filter centrifuge, industrial scale (isolability)
Excerpt: In the context of the present invention and as outlined in WO2020/126983, improved isolability of the active compound product, dischargeability of the active compound product after isolation and drying and also conveyability, sieveability and micronizability of the active compound product of the compound of the formula (I) are to be understood as meaning the following, for example: Improved isolability is measurable on an industrial scale for example via a higher area-specific throughput in an inverting filter centrifuge (Example 16). In the context of the present invention the isolation of the active compound product is carried out using for example a filter centrifuge, for example an inverting filter centrifuge. […] This manifests for example in a higher area-specific throughput in the inverting filter centrifuge. On an industrial scale isolation of the material from the process of WO 2013/076168 achieved an average area-specific throughput of 1.6 kg/m^2 h. The average area-specific throughput of the material from the process of the invention was 3.0 kg/m^2 h and thus nearly double the above (Example 16). Higher area-specific throughput in an inverting filter centrifuge. Industrial scale.

[2] = Sieving of active compound product on an industrial sieving machine (sieveability); details: for Sieve throughput of active compound product: industrial scale, Frewitt Oscillowitt MG-800 (2.5 to 4.0 mm) for WO 2013/076168 material, Frewitt Coniwitt TC200 (3 mm) for material of the invention; for Time to sieve 65 kg of active compound product: Frewitt Coniwitt TC200, sieve aperture diameter 3 mm
Method: Improved sieveability is measurable for example via improved feeding into the industrial sieving machine as a result of improved flowability of the active compound product and via fewer sieve blockages, for example via the throughput of active compound product per unit time (Example 17).
In the context of the present invention the sieving of the active compound product is carried out for example using a Frewitt Coniwitt TC200 sieving machine (sieve aperture diameter 3 mm) or a Frewitt Oscillowitt MG-800 sieving machine (sieve aperture diameter 2.5 mm to 4.0 mm).
Improved sieveability: The material from the process of the invention is easy to feed into the sieving machine on account of its good flowability. Sieving results in markedly fewer sieve blockages than for material from the process according to route 1. For example on an industrial scale 65 kg of the material from the process of the invention were sievable in <5 min in a Frewitt Coniwitt TC200 sieving machine (sieve aperture diameter 3 mm). This corresponds to >13 kg/min. For comparison sieving material from route 1 via a Frewitt Oscillowitt MG-800 sieving machine (sieve aperture diameter 2.5 mm to 4.0 mm) only achieved throughputs of <10 kg/h. This corresponds to <0.17 kg/min (Example 17). Observed here is a very large difference of a factor of nearly 100 in the sieve throughput of the active compound product of route 1 compared to the active compound product of the invention. This very large difference in sieve throughput results predominantly from the material characteristics of the active compound product and cannot be explained by the different machine types.
Improved sieve throughput. Industrial scale.

[3] = Dischargeability from the inverting filter centrifuge, industrial scale; details: listed as material from the process of the invention
Excerpt: Improved dischargeability from the isolation apparatus: The process according to the process of the present invention prevents the formation of a felt-like filter cake having high tear strength. Both after isolation in the pressure filter and after isolation in the filter centrifugation the filter cake is soft and moldable. This prevents blockage of the discharge path. For example on an industrial scale a blockage of the discharge path from the inverting filter centrifuge after isolation of the material from the process of WO 2013/076168 was avoidable only by reducing the filter cake thickness to 8 mm to 9 mm. By contrast in the isolation of the material from the process of the invention an average filter cake height of 25 mm was realized without any blocking of the discharge path being observed.

[4] = listed as material from the process of the invention

| Structure (SMILES) | Average area-specific throughput [1] [kg/m^2h] | Average area-specific throughput ([1]; listed as material from the process of WO 2013/076168) [kg/m^2h] | Sieve throughput ([2]; Frewitt Oscillowitt MG-800, sieve aperture diameter 2.5 mm to 4.0 mm) [kg/h] | Amount of active compound product sieved in 1 h ([2]; Frewitt Oscillowitt MG-800, sieve aperture diameter 2.5 to 4.0 mm, in 1 h) | Sieve throughput of active compound product [2] | Sieve throughput of active compound product ([2]; listed as material from route 1) [kg/min] | Average area-specific throughput [1, 4] [kg/m^2h] | Filter cake thickness at which the discharge path does not become blocked [3] [mm] | Time to sieve 65 kg of active compound product [2] | Time to sieve 65 kg of active compound product [2, 4] [min] | Sieve throughput of active compound product [2, 4] [kg/min] |
| --- | --- | --- | --- | --- | --- | --- | --- | --- | --- | --- | --- |
| COC(=O)Nc1c(N)nc(-c2nn(Cc3ccccc3F)c3ncc(F)cc23)nc1N [Process of WO 2013/076168, methyl {4,6-diamino-2-[5-fluoro-1-(2-fluorobenzyl)-1H-pyrazolo[3,4-b]pyridin-3-yl]pyrimidin-5-yl}carbamate, reference compound] | 1.6 | 1.6 | < 10 | <10 kg of active compound | i.e. <0.17 kg/min | < 0.17 |  |  |  |  |  |
| COC(=O)Nc1c(N)nc(-c2nn(Cc3ccccc3F)c3ncc(F)cc23)nc1N [Process of the invention, methyl {4,6-diamino-2-[5-fluoro-1-(2-fluorobenzyl)-1H-pyrazolo[3,4-b]pyridin-3-yl]pyrimidin-5-yl}carbamate] | 3.0 |  |  |  | i.e. >13 kg/min |  | 3.0 | 25 | product in <5 min | < 5 | > 13 |
